Experimental data: patent US20080004276A1, “Method for treating non-hodgkin's lymphoma” (priority 2006, published 2008)
“Also recorded” adds a separate entry of the source.

Assays:
Her2 = test: IC50 range for inhibition of Her2 degradation (Table 8); format: cell-based; conditions: Homo sapiens
Procedure: Human high-Her2 breast carcinoma BT474 (HTB-20), SK-BR-3 (HTB-30) and MCF-7 breast carcinoma (HTB-22) from American Type Culture Collection, VA, USA were grown in Dulbecco's modified Eagle's medium with 4 mM L-glutamine and antibiotics (100 IU/ml penicillin and 100 ug/ml streptomycine; GibcoBRL). To obtain exponential cell growth, cells were trypsinized, counted and seeded at a cell density of 0.5×10^6 cells/ml regularly, every 3 days. All experiments were performed on day 1 after cell passage. […]
After treatment with a compound of the invention, cells were washed twice with 1×PBS/1% FBS, and then stained with anti-Her2-FITC (#340553, BD) for 30 min at 4° C. Cells were then washed three times in FACS buffer before the fixation in 0.5 ml 1% paraformadehydrede. Data was acquired on a FACSCalibur system. Isotype-matched controls were used to establish the non-specific staining of samples and to set the fluorescent markers. A total 10,000 events were recorded from each sample. Data were analysed by using CellQuest software (BD Biosciences).

Daudi = Daudi non-Hodgkin's lymphoma SCID mouse xenograft; format: in vivo; conditions: 25 mg/kg i.v., 5 times per week, 15 doses
Procedure: FBS was obtained from ATCC and all other reagents were obtained from Invitrogen Corp. (Carlsbad, Calif., USA). Cells that had been cryopreserved in liquid nitrogen were rapidly thawed at 37° C. and transferred to a tissue culture flask containing growth media and then incubated at 37° C. in a 5% CO2 incubator. To expand the cell line, cultures were passaged 1:2 to a density of 5×10(6) cells/ml every three days by adding an equal volume of fresh growth media. When the flasks reached a density of approximately 10×10(6) cells/ml, the above passaging process was repeated until sufficient cells had been obtained for implantation into mice.
(§1) Seven to eight week old, female CB17/Icr-Prkdc^scid/Crl (SCID) mice were obtained from Charles River Laboratories (Wilmington, Mass., USA). Animals were housed 4-5/cage in micro-isolators, with a 12 hr/12 hr light/dark cycle, acclimated for at least 1 week prior to use and fed normal laboratory chow ad libitum. Studies were conducted on animals that were between 8 and 12 weeks of age at the time of tumor cell implantation. […] Using a 27 gauge needle and 1 cc syringe, 0.1 ml of the cell suspension was injected subcutaneously into the shaved flanks of SCID mice. To implant SU-DHL-4 tumor cells into SCID mice, cell cultures were centrifuged to pellet the cells, the supernatant was aspirated and the cell pellet was resuspended in 10 ml of growth media and the cell number determined using a hemocytometer, washed in PBS and resuspended at a concentration of 10×10(7) cells/ml in 50% PBS and 50% Matrigel Basement Membrane Matrix (#354234; BD Biosciences; Bedford, Mass., USA). Using a 27 gauge needle and 1 cc syringe, 0.1 ml of the cell suspension was injected subcutaneously into the shaved flanks of SCID mice.
Tumors were then permitted to develop in vivo until the majority reached 100-200 mm^3 in tumor volume, which typically required 2-3 weeks following implantation. […] Tumor volumes (V) were calculated by caliper measurement of the width (W), length (L) and thickness (T) of tumors using the following formula: V=0.5236×(L×W×T). […]

SU-DHL-4 = SU-DHL-4 non-Hodgkin's lymphoma SCID mouse xenograft; format: in vivo; conditions: for % T/C value: FIG. 6
Procedure: The human non-Hodgkin's lymphoma tumor cell line, SU-DHL-4 (DSMZ #ACC 495), sub-classified as a GCB-type diffuse large B-cell lymphoma, was obtained from Deutsche Sammlung von Mikroorganismen und Zellkulturen GmbH (DSMZ; Braunschweig, Germany). […] FBS was obtained from ATCC and all other reagents were obtained from Invitrogen Corp. (Carlsbad, Calif., USA). Approximately 3-4×10(7) cells that had been cryopreserved in liquid nitrogen were rapidly thawed at 37° C. and transferred to a 175 cm^2 tissue culture flask containing 50 ml of growth media and then incubated at 37° C. in a 5% CO2 incubator. To passage and expand the cell line, the contents of a flask were centrifuged to pellet the cells, the supernatant was aspirated and the cell pellet was resuspended in 10 ml of growth media and the cell number determined using a hemocytometer. Approximately 3-4×10(7) cells per flask were seeded into 175 cm^2 flasks containing 50 ml of growth media and incubated at 37° C. in a 5% CO2 incubator. The above passaging process was repeated every 2-3 days until sufficient cells had been obtained for implantation into mice.
as §1
Tumors were then permitted to develop in vivo until the majority reached 100-200 mm^3 in tumor volume, which typically required 2-3 weeks following implantation. […] Tumor volumes (V) were calculated by caliper measurement of the width (W), length (L) and thickness (T) of tumors using the following formula: V=0.5236×(L×W×T). Animals were randomized into treatment groups so that the median tumor volumes of each group were similar at the start of dosing. % T/C values, as a measure of efficacy, were determined as follows: • (i) If ΔT>0: % T/C=(ΔT/ΔC)×100 • (ii) If ΔT<0: % T/C=(ΔT/T0)×100 • (iii) ΔT=Change in median tumor volume between start of dosing and the end of study. • (iv) ΔC=Change in median tumor volume between start of dosing and the end of study. • (v) T0=Median tumor volume at start of dosing.
To formulate Compound #226 in DRD, stock solutions of the test article were prepared by dissolving the appropriate amounts of the compound in dimethyl sulfoxide (DMSO) by sonication in an ultrasonic water bath. Stock solutions were prepared weekly, stored at −20° C. and diluted fresh each day for dosing. A solution of 20% Cremophore RH40 (polyoxyl 40 hydrogenated castor oil; BASF Corp., Aktiengesellschaft, Ludwigshafen, Germany) in 5% dextrose in water (Abbott Laboratories, North Chicago, Ill., USA) was also prepared by first heating 100% Cremophore RH40 at 50-60° C. until liquefied and clear, diluting 1:5 with 100% D5W, reheating again until clear and then mixing well. This solution was stored at room temperature for up to 3 months prior to use. To prepare DRD formulations for daily dosing, DMSO stock solutions were diluted 1:10 with 20% Cremophore RH40. […]

| SMILES | IC50 (Her2) [nM] | also measured |
| --- | --- | --- |
| CCc1cc(-c2nnc(S)n2-c2ccc(OC)c(C(C)(C)C)c2)c(O)cc1O [Compound 186, 3-(2,4-Dihydroxy-5-ethyl-phenyl)-4-(3-t-butyl-4-methoxy-phenyl)-5-mercapto-triazole] | 10000 to 100000 |  |
| CCc1cc(-c2nnc(S)n2-c2ccc(OC)c3c2ccn3C(C)C)c(O)cc1O [Compound 188, 3-(2,4-Dihydroxy-5-ethyl-phenyl)-4-(1-isopropyl-7-methoxy-indol-4-yl)-5-mercapto-[1,2,4]triazole] | < 3000 |  |
| CC(C)c1cc(-c2nnc(O)n2-c2ccc3c(ccn3C)c2)c(O)cc1O [Compound 226, 3-(2,4-dihydroxy-5-isopropyl-phenyl)-4-(1-methyl-indol-5-yl)-5-hydroxy-[1,2,4] triazole] |  | overt toxicity (Daudi; SCID mice): not associated with overt toxicity; also recorded: Overt toxicity was not observed; % T/C value (Daudi; SCID mice, FIG. 5): 1.5%; average bodyweight loss relative to the start of the study (Daudi; day 41 / over the course of the study): −1.0%; % T/C value (SU-DHL-4; 50 mg/kg i.v., 2 times per week, 4 doses, SCID mice): 34.9%; % T/C value (SU-DHL-4; 75 mg/kg i.v., 2 times per week, 4 doses, SCID mice): 8.1%; % T/C value (SU-DHL-4; 100 mg/kg i.v., 2 times per week, 4 doses, SCID mice): −10.4%; overt toxicity (SU-DHL-4; 50, 75 and 100 mg/kg i.v., 2 times per week, 4 doses, SCID mice): not associated with overt toxicity; also recorded: Overt toxicity was not observed; average bodyweight loss relative to the start of the study (SU-DHL-4; highest dose group 100 mg/kg i.v., 2 times per week, 4 doses, day 31): −4.2%; average bodyweight loss (SU-DHL-4; over the course of the study, dose not stated (text on FIG. 6)): −1.0% |
| CCc1cc(-c2nnc(S)n2-c2cccc(N(C)C)c2)c(O)cc1O [Compound 252, 4-(4-(3-(dimethylamino)phenyl)-5-mercapto-4H-1,2,4-triazol-3-yl)-6-ethylbenzene-1,3-diol] | < 3000 |  |
| CCc1cc(-c2nnc(S)n2-c2ccc(N(C)C)c(OC)c2)c(O)cc1O [Compound 259, 4-(4-(4-(dimethylamino)-3-methoxyphenyl)-5-mercapto-4H-1,2,4-triazol-3-yl)-6-ethylbenzene-1,3-diol] | < 3000 |  |
| CCc1cc(-c2n[nH]c(O)c2-c2cccc3ccccc23)c(O)cc1O [Compound 348, 4-(naphthalen-1-yl)-3-(5-ethyl-2,4-dihydroxy-phenyl)-5-hydroxy-2H-pyrazole] | 10000 to 100000 |  |

Continued, in another order:

| IC50 (Her2) [nM] | SMILES | also measured |
| --- | --- | --- |
| < 3000 | CCc1cc(-c2nnc(S)n2-c2ccc3[nH]c(C)c(C)c3c2)c(O)cc1O [Compound 185, 3-(2,4-Dihydroxy-5-ethyl-phenyl)-4-(2,3-dimethyl-indol-5-yl)-5-mercapto-triazole] |  |
| < 3000 | Oc1cc(O)c(C2CC2)cc1-c1nnc(S)n1-c1cccc2ccccc12 [Compound 189, 3-(2,4-Dihydroxy-5-cyclopropyl-phenyl)-4-(naphthalene-1-yl)-5-mercapto-triazole] |  |
| < 3000 | CCc1cc(-c2nnc(S)n2-c2ccc(OC)c(N(CC)CC)c2)c(O)cc1O [Compound 247, 4-(4-(3-(diethylamino)-4-methoxyphenyl)-5-mercapto-4H-1,2,4-triazol-3-yl)-6-ethylbenzene-1,3-diol] |  |
| < 3000 | CCCN(c1cc(-n2c(S)nnc2-c2cc(CC)c(O)cc2O)ccc1OC)C(C)C [Compound 248, 4-(4-(3-(N-isopropyl-N-propylamino)-4-methoxyphenyl)-5-mercapto-4H-1,2,4-triazol-3-yl)-6-ethylbenzene-1,3-diol] |  |
| < 3000 | CCc1cc(-c2nnc(S)n2-c2ccc(OC)c(N(C)C(C)C)c2)c(O)cc1O [Compound 249, 4-(4-(3-(N-isopropyl-N-methylamino)-4-methoxyphenyl)-5-mercapto-4H-1,2,4-triazol-3-yl)-6-ethylbenzene-1,3-diol] |  |
| < 3000 | CCc1cc(-c2nnc(S)n2-c2ccc(OC)c(N(C)CC)c2)c(O)cc1O [Compound 250, 4-(4-(3-(N-ethyl-N-methylamino)-4-methoxyphenyl)-5-mercapto-4H-1,2,4-triazol-3-yl)-6-ethylbenzene-1,3-diol] |  |
| < 3000 | CCc1cc(-c2nnc(S)n2-c2ccc(OC)c(N(C)C)c2)c(O)cc1O [Compound 251, 4-(4-(3-(dimethylamino)-4-methoxyphenyl)-5-mercapto-4H-1,2,4-triazol-3-yl)-6-ethylbenzene-1,3-diol] |  |
